Experimental data: patent US12104178B2, “DHFR tunable protein regulation” (Obsidian Therapeutics, Inc., priority 2017, dated 2024)

Columns and labels:
[1] = system: human donor T cells; test: Shield-1 concentration and time dependent IL12 p40 in human T cells (Tables 94-96); type: cell-based; set-up: IL12 levels in T cells (IL12 p40, MSD): unit not given beside the values; details: for EC50: IL12 p40 from OT-IL12-026 T cells; for IL12 levels in T cells (IL12 p40, MSD): OT-IL12-026 T cells, 24 hours
Method: On day 1, cells were transduced with lentivirus for construct OT-IL12-026 at MOIs of 40, 13.3 or 4.4. […] Cells were then plated at 100,000 per well on U-bottom 96-well plate. On day 14, cells were treated for 24 hours with varying concentrations of Shield-1 or vehicle control. On day 15, the supernatant was harvested and IL12 p40 levels were measured by MSD assay. In the Table 94, MOI stands for multiplicity of infection.
A time course experiment was also performed using Shield-1 at a dose of 1 μM. T cells transduced with OT-IL12-020, OT-IL12-026 or empty vector were treated with Shield-1 or vehicle control for 4, 8, 16 and 24 hours. IL12 p40 levels were measured using MSD assay. The stabilization ratio was measured as the ratio of expression of IL12 in the presence of the stimulus to the expression in the absence of the stimulus.

[2] = system: HCT-116; test: DD regulated IL2, IL2 ELISA with Shield-1 dose; type: cell-based, human; details: read-out: EC50 of Shield-1, IL2 ELISA (FIG. 58); HCT-116 transduced with OT-IL2-001
Excerpt: OT-IL2-001 (FKBP) was transduced into human colorectal carcinoma line, HCT-116.

[3] = system: human donor T cells; test: Shield-1 concentration and time dependent IL12 p40 in human T cells (Tables 94-96); type: cell-based; details: 24 h

For CC[C@H](C(=O)N1CCCC[C@H]1C(=O)O[C@H](CCc1ccc(OC)c(OC)c1)c1cccc(OCCN2CCOCC2)c1)c1cc(OC)c(OC)c(OC)c1 [Shield-1], the EC50 ([1]; MOI 4.4) was 0.084 µM, the EC50 ([1]; MOI 13.3) was 0.094 µM and the EC50 ([1]; MOI 40) was 0.13 µM. For the same compound, the “IL12 levels in T cells (IL12 p40, MSD)” value ([1]; MOI = 4.4, Shield-1 0.1 nM) was 49.44, the “IL12 levels in T cells (IL12 p40, MSD)” value ([1]; MOI = 4.4, Shield-1 1 nM) was 50.44 and the “IL12 levels in T cells (IL12 p40, MSD)” value ([1]; MOI = 4.4, Shield-1 5 nM) was 50.44. For the same compound, the “IL12 levels in T cells (IL12 p40, MSD)” value ([1]; MOI = 4.4, Shield-1 10 nM) was 178.18, the “IL12 levels in T cells (IL12 p40, MSD)” value ([1]; MOI = 4.4, Shield-1 50 nM) was 357.11 and the “IL12 levels in T cells (IL12 p40, MSD)” value ([1]; MOI = 4.4, Shield-1 100 nM) was 710.56. For the same compound, the “IL12 levels in T cells (IL12 p40, MSD)” value ([1]; MOI = 4.4, Shield-1 500 nM) was 1284.95, the “IL12 levels in T cells (IL12 p40, MSD)” value ([1]; MOI = 4.4, Shield-1 1000 nM) was 1152.28 and the “IL12 levels in T cells (IL12 p40, MSD)” value ([1]; MOI = 4.4, Shield-1 2000 nM) was 1071.54. The “IL12 levels in T cells (IL12 p40, MSD)” value ([1]; MOI = 13.3, Shield-1 0.1 nM) was 48.10, the “IL12 levels in T cells (IL12 p40, MSD)” value ([1]; MOI = 13.3, Shield-1 1 nM) was 48.61 and the “IL12 levels in T cells (IL12 p40, MSD)” value ([1]; MOI = 13.3, Shield-1 5 nM) was 49.54. The “IL12 levels in T cells (IL12 p40, MSD)” value ([1]; MOI = 13.3, Shield-1 10 nM) was 220.08, the “IL12 levels in T cells (IL12 p40, MSD)” value ([1]; MOI = 13.3, Shield-1 50 nM) was 420.72 and the “IL12 levels in T cells (IL12 p40, MSD)” value ([1]; MOI = 13.3, Shield-1 100 nM) was 972.56. The “IL12 levels in T cells (IL12 p40, MSD)” value ([1]; MOI = 13.3, Shield-1 500 nM) was 1307.70, the “IL12 levels in T cells (IL12 p40, MSD)” value ([1]; MOI = 13.3, Shield-1 1000 nM) was 1559.43 and the “IL12 levels in T cells (IL12 p40, MSD)” value ([1]; MOI = 13.3, Shield-1 2000 nM) was 1577.99. For the same compound, the “IL12 levels in T cells (IL12 p40, MSD)” value ([1]; MOI = 40, Shield-1 0.1 nM) was 88.30, the “IL12 levels in T cells (IL12 p40, MSD)” value ([1]; MOI = 40, Shield-1 1 nM) was 80.07 and the “IL12 levels in T cells (IL12 p40, MSD)” value ([1]; MOI = 40, Shield-1 5 nM) was 88.83. The “IL12 levels in T cells (IL12 p40, MSD)” value ([1]; MOI = 40, Shield-1 10 nM) was 374.90, the “IL12 levels in T cells (IL12 p40, MSD)” value ([1]; MOI = 40, Shield-1 50 nM) was 608.85 and the “IL12 levels in T cells (IL12 p40, MSD)” value ([1]; MOI = 40, Shield-1 100 nM) was 1293.01. The “IL12 levels in T cells (IL12 p40, MSD)” value ([1]; MOI = 40, Shield-1 500 nM) was 1861.36, the “IL12 levels in T cells (IL12 p40, MSD)” value ([1]; MOI = 40, Shield-1 1000 nM) was 2346.15 and the “IL12 levels in T cells (IL12 p40, MSD)” value ([1]; MOI = 40, Shield-1 2000 nM) was 2330.88. The EC50 [2] was 0.05 µM and the “Shield-1 concentration at which viability was reduced” value [3] was “greater than 5 μM”.
